This is an account of results in patent US20260049078A1, “DIFLUORO- AND TRIFLUORO-ACETYL HYDRAZIDES AS SELECTIVE HDAC6 INHIBITORS” (ITALFARMACO S.P.A., priority 2022, published 2026).

Each structure is given as a SMILES string. Bounds are passed on as bounds.

For data set [1], the target named is zHDAC6-CD2 wt (Danio rerio (Zebrafish) (Brachydanio rerio), UniProt F8W4B7). The data set can be described thus: Isolation of long-lived/tight complex (spin column chromatography with LC-HRMS). The class given is binding. Particulars: zHDAC6-CD2 wt 1 μM, compound 5 μM, 6 hours, Bio-Spin P-6. How it is done: Rapid chromatography on spin columns coupled to LC-HRMS was used to attempt the isolation of long-lived/tight complexes between HDAC6 and examples 1 and 1-A. zHDAC6-CD2 wt (1 μM) was incubated with 1 (5 μM) or 1-A (also 5 μM) as described before for 6 hours. An aliquot (60 μL) was loaded on a Bio-Spin P-6 Gel Column (Bio-Rad) that had been equilibrated with assay buffer in order to separate the HDAC6-inhibitors complexes from free compounds. After centrifugation to elute the initial fraction containing most of the enzyme, ten 200 μL aliquots were applied and eluted by centrifugation to collect the low molecular weight (free) compounds. Aliquots of the fractions were subjected to LC-HRMS analysis (as described above) for identification and quantitation of 1 and its derivatives.
zHDAC6-CD2 wt, sequence (F8W4B7 entry or part of it del 1-439/del 799-1081 limits assumed): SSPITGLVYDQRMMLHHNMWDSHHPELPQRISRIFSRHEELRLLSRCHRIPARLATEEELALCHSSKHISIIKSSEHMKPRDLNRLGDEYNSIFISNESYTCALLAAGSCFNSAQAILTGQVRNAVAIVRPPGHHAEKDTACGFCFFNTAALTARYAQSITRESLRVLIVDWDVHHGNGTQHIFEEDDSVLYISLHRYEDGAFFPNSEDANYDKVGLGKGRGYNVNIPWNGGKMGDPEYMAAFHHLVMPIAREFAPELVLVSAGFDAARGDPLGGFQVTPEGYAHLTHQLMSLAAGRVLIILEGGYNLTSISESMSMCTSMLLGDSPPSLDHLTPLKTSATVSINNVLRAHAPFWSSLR

Data set [2] deals with recombinant human HDAC6 (Homo sapiens (Human), UniProt Q9UBN7). Kind of data set: Enzyme inhibitory activity assay on HDAC6. In kind it is biochemical. Particulars: 30 minutes preincubation at 25° C. How it is done: (§1) For each test compound, 100× concentrated DMSO solutions at 8 doses were prepared and then diluted in assay buffer (25 mM Tris-HCl, pH 8, 130 mM NaCl, 0.05% Tween-20, 10% Glycerol) to obtain 5× concentrated solutions in relation to the final concentrations (typical final concentration range—6.4-200000 nM or 0.18-50000 nM, final DMSO content—1%). Then 10 μL solution of each test compound concentration were placed on a 96-well plate in triplicate and 15 μL of 3.33× concentrated enzyme solution in the assay buffer containing 3.33× concentrated BSA (final BSA concentration 1 mg/mL) and, in case of HDAC6, 3.33× concentrated TCEP (final TCEP concentration—200 μM) were added to each well. After a period of preincubation at 25° C. (30 minutes for HDAC6 and 120 minutes for HDAC1), 25 μL of solution containing the substrate were added. As substrate, FLUOR DE LYS® deacetylase substrate (Enzo Life Sciences, cat: BML-KI104, FdL), FLUOR DE LYS®-Green substrate (Enzo Life Sciences, cat: BML-KI572, FdL_G) or Boc-Lys(Tfa)-AMC (Bachem, cat: 4060676.005, Tfal)—2× concentrated solution in assay buffer were used. Following a reaction period (30 minutes at 25° C.), 50 μL of the development solution consisting of concentrate FLUOR DE LYS® developer I (Enzo Life Sciences, ca: BML-KI105), diluted 200 times in buffer (50 mM Tris-HCl, pH 8, 137 mM NaCl, 2.7 mM KCl, 1 mM MgCl2) plus 2 μM TSA was added and, after 25 minutes at room temperature in the dark, using the Victor 1420 Multilabel Counter Perkin Elmer Wallac instrument, the fluorescence reading was carried out (excitation/emission: 485/535 nM—Fluor de Lys Green, 355/460 nM—Tfal, Fluor de Lys).
recombinant human HDAC6, sequence (Q9UBN7 whole entry): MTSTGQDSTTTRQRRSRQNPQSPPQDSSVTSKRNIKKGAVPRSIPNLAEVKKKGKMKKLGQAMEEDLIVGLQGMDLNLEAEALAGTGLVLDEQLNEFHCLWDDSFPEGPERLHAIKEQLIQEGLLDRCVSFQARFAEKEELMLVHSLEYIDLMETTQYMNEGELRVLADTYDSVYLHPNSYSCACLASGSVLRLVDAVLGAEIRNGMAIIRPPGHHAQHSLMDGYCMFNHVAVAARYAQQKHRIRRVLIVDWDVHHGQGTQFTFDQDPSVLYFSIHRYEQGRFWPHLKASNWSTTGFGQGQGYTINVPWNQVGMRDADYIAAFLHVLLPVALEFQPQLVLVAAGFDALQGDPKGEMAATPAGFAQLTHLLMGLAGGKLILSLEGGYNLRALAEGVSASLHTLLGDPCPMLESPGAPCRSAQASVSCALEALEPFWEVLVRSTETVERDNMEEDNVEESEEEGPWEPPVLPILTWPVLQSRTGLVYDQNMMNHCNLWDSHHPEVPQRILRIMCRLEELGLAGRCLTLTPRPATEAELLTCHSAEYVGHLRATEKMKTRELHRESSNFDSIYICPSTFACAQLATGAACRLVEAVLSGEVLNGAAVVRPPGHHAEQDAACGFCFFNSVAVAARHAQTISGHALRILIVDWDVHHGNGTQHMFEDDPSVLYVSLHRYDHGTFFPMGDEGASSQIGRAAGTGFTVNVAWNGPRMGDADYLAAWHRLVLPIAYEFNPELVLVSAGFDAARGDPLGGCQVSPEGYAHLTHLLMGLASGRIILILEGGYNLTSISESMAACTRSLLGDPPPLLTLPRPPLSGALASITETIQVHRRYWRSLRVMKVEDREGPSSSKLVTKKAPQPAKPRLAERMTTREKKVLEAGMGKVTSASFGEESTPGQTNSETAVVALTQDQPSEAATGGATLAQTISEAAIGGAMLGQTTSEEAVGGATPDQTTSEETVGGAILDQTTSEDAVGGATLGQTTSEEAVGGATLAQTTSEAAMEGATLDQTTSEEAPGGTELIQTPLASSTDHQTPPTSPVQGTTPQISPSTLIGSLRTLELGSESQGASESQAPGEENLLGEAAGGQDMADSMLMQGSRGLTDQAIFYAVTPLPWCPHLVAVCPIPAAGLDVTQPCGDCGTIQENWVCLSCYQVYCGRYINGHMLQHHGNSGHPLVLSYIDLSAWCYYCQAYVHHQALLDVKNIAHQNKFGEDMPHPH
(§2) Enzymatic activity on recombinant human HDAC6 and HDAC1 was evaluated (Table 2) for each synthesized compound.

The target of data set [3] is recombinant human HDAC1 (Homo sapiens (Human), UniProt Q13547). The data set can be described thus: Enzyme inhibitory activity assay on HDAC1. In kind it is biochemical. Particulars: 120 minutes preincubation at 25° C. How it is done:
as §1, §2

In data set [4] the test system is human B cell precursor leukemia 697. Kind of data set: In vitro α-tubulin acetylation in 697 cell line. The class given is cell-based. The following applies: Homo sapiens, B-cell, 16 h; read-out: TubAc 697 cells EC50. Here is the method: The in vitro α-tubulin acetylation was evaluated on human B cell precursor leukemia 697.
The 697 cells were maintained in RPMI Medium 1640 (Gibco, cat: 21875-034) supplemented with 10 mM HEPES (Gibco, cat: 15630-080), Pen-Strep (Penicillin 100 U/ml, Streptomycin 100 μg/ml, Gibco, cat: 15140-122) and 10% fetal bovine serum (Gibco, cat: 10270-106).
The cells were plated in 12-well plates (Costar, cat: 3512) at the density of 5.5×10^5 cells/ml.
Serial dilutions of test compounds in DMSO were prepared using 20 mM stock solutions to obtain 8 doses 200× concentrated in respect to final doses (2.7-100000 nM). Then the DMSO solutions were diluted 10× in culture medium to obtain 20× concentrated solutions which were used for cells treatment (125 μl of medium solutions were added to 2.375 ml of cells suspension). The final DMSO content was set as 0.5%. The plates were incubated at 37° C., 5% CO2 for 16 hours.
At the end of the incubation period, the cells were harvested and centrifuged for 5 minutes at 200×g and washed with 0.9% NaCl at 4° C. The resulting pellet was treated for 30 minutes at 4° C. with 100 μl Complete Lysis-M buffer containing protease inhibitors (Complete Lysis-M Roche+Complete Tablets, Mini Easypack, cat: 4719956001) and phosphatase inhibitor cocktails (PhosStop Easypack, Roche, cat: 4906837001) and then centrifuged 10 minutes at 18213×g. The protein concentration in each supernatant was determined using BCA Protein Assay Kit (Pierce, cat: 23227). The samples were diluted in PBS 1× to obtain 2 μg/ml concentration and coated in MaxiSorp 96-well plates (Nunc, cat: 442404). The plates were incubated overnight at room temperature.
Plates were washed twice with Wash Buffer (PBS 1×+0.005% tween 20) and saturated for 1 hour at room temperature with 300 μL of 1×PBS containing 10% FBS. After washing twice with Wash Buffer, the plates were incubated for 2 hours at room temperature in the presence of 100 μl/well either anti-acetylated-α-tubulin antibody (Monoclonal Anti-Tubulin, Acetylated antibody produced in mouse, Sigma-Aldrich, cat: T6793) or total anti-α-tubulin antibody (Monoclonal Anti-α-Tubulin produced in mouse, Sigma-Aldrich, cat: T6074) diluted 1:1000 in 1×PBS containing 10% FBS. Following 5 washing cycles with Wash Buffer the secondary antibody conjugated with the enzyme HRP (Goat anti-Mouse IgG, IgM, IgA (H+L), stock concentration 0.5 mg/ml, Thermo Fisher Scientific, cat: A10668), diluted 1:1000 in 1×PBS+10% FBS was added at the volume of 100 μl/well. After two hours of incubation at room temperature the plates were washed 4 times with Wash Buffer, then 100 μl/well of TMB substrate (TMB substrate kit, Thermo Fisher Scientific, cat: 34021) was added for 10 minutes at room temperature in the dark. The reaction was stopped by adding 50 μl of 2M H2SO4. The plates were read in BioTek Synergy H1 multimode microplate reader at a wavelength of 450 nm.
The measured absorbance was corrected by subtracting the mean of blank values (samples without the primary antibody). The absorbance ratios of acetyl to total tubulin assays were calculated and normalized to the reference compound (positive control) 4 parameter logistic curve, where 0% is the fitted bottom and 100% is the fitted top of the curve. The results are expressed as relative EC50.

Data set [5] concerns SH-SY5Y cells. Kind of data set: In vitro α-tubulin acetylation in undifferentiated SH-SY5Y cells. In kind it is cell-based. The following applies: overnight, @1uM. Here is the method:
SH-SY5Y cells (ATCC, cod. CRL-2266) are plated in optical optimized 96-well black plates (Perkin Elmer, cod. 6055302) at 5000 cells/well in 100 μl/well of growth medium (DMEM/F12 (1:1)+10 mM hepes+100 units/mL of penicillin+100 μg/mL of streptomycin+10% of inactivated Foetal calf serum (FCS, Hyclone)).
After 24 h of seeding, cells are incubated overnight with the selected molecules at 0.1-1-10 μM. ACY1083 and Tubastatin A, at the same doses, are tested as positive controls of α-Tubulin acetylation, while untreated cells are incubated with 0.01% DMSO and indicated as CTRL DMSO.
At the end of the incubation, cells are fixed adding 100 μL/well of formaldehyde 8% in PBS (final formaldehyde concentration 4% in 200 μL/well) directly in the 100 μL/well of medium, for 30 min at RT. The fixing solution is carefully removed, and wells are washed twice with PBS for 10 min each. Fixed cells are kept in PBS at 4° C. until staining.
The day of the staining experiment, the fixed cells are incubated 60 min with the blocking buffer (PBS with 5% FCS+0.3% Triton™ X-100). While blocking, primary antibodies are prepared by diluting 1:200 the α-Tubulin Alexa Fluor 488 Conjugate (Cell Signaling, cod. 5063) antibody and 1:50 Acetyl-α-Tubulin Alexa Fluor 647 Conjugate (Cell Signaling, cod. 81502) antibody in the Antibody Dilution Buffer (PBS with 1% BSA+0.3% Triton™ X-100). Once the blocking solution is aspirated, the diluted primary antibodies are applied and incubated overnight at 4° C. The next day, cells are rinsed twice with PBS (10 min each), incubated 5 min with 300 nM DAPI in PBS, and then rinsed twice with PBS (10 min each). For each treatment, 3 wells are stained.
Images of the stained cells are acquired by means of the IN Cell Analyzer 2500 HS Instrument, using: far red channel for Acetyl-α-Tubulin staining (exposure 0.02 sec), green channel for α-Tubulin staining (exposure 0.02 sec), and blue channel for DAPI (nuclei) staining. For each well, 10 images are acquired.
Images of stained cells are analysed with the InCarta software (Molecular Devices) for obtaining fluorescence intensity considering whole cells. For each treatment, mean values of Cell intensity—Bckg (Cell), for both staining, are obtained using the InCarta raw data by FOV (Field of View). Results are expressed as fold increase of the ratio of acetylated tubulin and total tubulin towards control (CTRL DMSO).

Data set [6] deals with HDAC6. Kind of data set: Kinetic of prodrug disappearing when incubated with HDAC6 (LC-HRMS). In kind it is biochemical. Particulars: HDAC6 1 μM, 5 μM compound, 25° C. Here is the method:
The LC-HRMS analysis was carried out using a Vanquish Flex UHPLC (Thermo Fisher Scientific) and a high-resolution mass spectrometer Orbitrap QExactive Focus (Thermo Fisher Scientific), equipped with a Heated Electrospray Ionization, operated in positive mode. A Full Scan analysis was set in the m/z range 50-500 amu. A XSelect HSS T3 50×2.1 mm, 2.5 μm chromatographic column (Waters) was used. Mobile phase A consisted of 0.1% formic acid in water and mobile phase B in 0.1% formic acid in acetonitrile. The flow rate was set to 0.5 mL/min, with a gradient program from 3 to 20% B in 3 minutes.

recombinant human HDAC1, sequence (Q13547 whole entry): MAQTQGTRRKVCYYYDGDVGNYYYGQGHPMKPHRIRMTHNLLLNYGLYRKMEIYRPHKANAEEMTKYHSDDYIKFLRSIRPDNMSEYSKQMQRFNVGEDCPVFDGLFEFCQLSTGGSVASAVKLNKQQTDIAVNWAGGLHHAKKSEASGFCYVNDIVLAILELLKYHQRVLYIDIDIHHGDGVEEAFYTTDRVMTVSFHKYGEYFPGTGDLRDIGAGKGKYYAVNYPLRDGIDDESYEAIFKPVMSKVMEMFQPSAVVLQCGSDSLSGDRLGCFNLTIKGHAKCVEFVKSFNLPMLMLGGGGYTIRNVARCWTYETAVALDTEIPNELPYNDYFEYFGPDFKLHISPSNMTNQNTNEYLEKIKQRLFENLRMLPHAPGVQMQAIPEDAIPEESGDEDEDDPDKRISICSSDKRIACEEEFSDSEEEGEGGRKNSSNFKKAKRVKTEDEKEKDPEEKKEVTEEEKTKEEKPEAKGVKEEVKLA

Consider `O=C(NNC(=O)C(F)F)c1ccc(Cn2cc(-c3ccc(NC4=NCCN4)cc3)nn2)cc1` [Compound 1, N′-(2,2-difluoroacetyl)-4-((4-(4-((4,5-dihydro-1H-imidazol-2-yl)amino)phenyl)-1H-1,2,3-triazol-1-yl)methyl)benzohydrazide], for which the “co-elution with the enzyme (fraction 1)” value in data set [1] is “co-elutes with the enzyme”.

Usually IC50 stands for the concentration at which inhibition is half-maximal. For orientation: EC50 means the concentration that produces a half-maximal response. Regarding `CC(c1ccc(-c2nnc(C(F)F)o2)cn1)n1cc(-c2ccc(N)nc2)nn1` (stereo not shown) [Compound 39-A], the values for the IC50 in data set [2] and in data set [3] were 14 nM and greater than 100 µM, respectively. In addition, in data set [4], the EC50 is 320 nM. Also, the “TubAc SH-SY5Y cells fold increase of the ratio of acetylated tubulin and total tubulin towards control” value in data set [5] was found to be 6.5 fold.

`Nc1ccc(-c2cn(Cc3ccc(-c4nnc(C(F)F)o4)cc3)nn2)cn1` [Compound 45-A]: the “percentage of compound concentration (prodrug remaining)” value came out at 100.00% in data set [6] (time 0 min); 79.9% in data set [6] (time 30 min); 73.7% in data set [6] (time 60 min); 47.8% in data set [6] (time 120 min); 22.6% in data set [6] (time 240 min); 11.6% in data set [6] (time 360 min). The “percentage of compound concentration (prodrug remaining)” value in data set [6] (time 480 min) stood at 5.2%. In data set [6] (HDAC6 enzyme in assay buffer, read-out: T1/2 of prodrug disappearing), the half-life at 5 µM is 113 min. In addition, the results for the IC50 in data set [2] and in data set [3] were 26 nM and greater than 100 µM, respectively. Moreover, the EC50 in data set [4] worked out at 664 nM.
